Patent publication US5077280A, “Treatment of viral infections” (priority 1988, dated 1991)

How the values were obtained:
[1] = test system: human bone marrow cells; test: toxicity for human bone marrow cells; type: cell-based
[2] = test system: human CFU-GM cells; test: human CFU-GM cell proliferation; type: cell-based; details: concentrations as high as 100 μM
[3] = test system: bone marrow cells; type: cell-based, human; details: 5 μM AZT for 2 hours; 50-100 μM of uridine (and also cytidine)
[4] = test system: viral replication (reverse transcriptase); test: suppression of viral replication (assessed by inhibition of reverse transcriptase); type: cell-based; details: combination molar ratios (uridine/AZT) as high as 10,000/1
[5] = in vivo; cited from earlier work
[6] = test system: bone marrow cell growth (granulocyte-macrophages and erythrocytes); details: patients; cited from earlier work

In the case of O=c1[nH]c(=O)n(COCCO)cc1Cc1ccccc1 [BAU, benzylacyclouridine], the “toxicity per se for human bone marrow cells” value [1] is reported as “non-toxic” and the “effect on human CFU-GM cell proliferation” value [2] is reported as “no substantial effect”.

For O=c1ccn([C@@H]2O[C@H](CO)[C@@H](O)[C@H]2O)c(=O)[nH]1 [uridine], the “reversal of toxic effects of antiviral nucleoside analogues” value [3] is given as “essentially completely reversed”, the “impairment of suppression of viral replication” value [4] is given as “no impairment of suppression of viral replication” and the “clearance by the body” value [5] is given as “cleared rapidly”.

In the case of Cc1cn([C@H]2C[C@H](N=[N+]=[N-])[C@@H](CO)O2)c(=O)[nH]c1=O [AZT, 3'-azido-3'deoxythymidine], the “common complication of AZT therapy” value [6] is given as “suppression of bone marrow cell growth”.

With Nc1ccn([C@@H]2O[C@H](CO)[C@@H](O)[C@H]2O)c(=O)n1 [cytidine] the “reversal of toxic effects of antiviral nucleoside analogues” value [3] was “essentially completely reversed”.
